Key:
[1] = target: Ba/F3 EML4-ALK v1 I1171N/D1203N (Homo sapiens (Human), UniProt Q9HC35+Q9UM73, D1203N/I1171N); assay: Ba/F3 cell proliferation assay, EML4-ALK v1 I1171N/D1203N; type: cell-based; settings: for IC50: Ba/F3 stable cells, 72 hours, CellTiter-Glo; for ETV6-TRKB / EML4-ALK v1 I1171N/D1203N / Selectivity for Ba/F3 EML4-ALK v1 I1171N-D1203N IC50 over Ba/F3 ETV6-TRKB IC50: TRKB selectivity, ratio of Ba/F3 IC50 values; for Selectivity for Ba/F3 EML4-ALK v1 I1171N-D1203N IC50 over Ba/F3 ETV6-TRKB IC50: Table 6 bins
How it was run: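 Ba/F3 cells made IL-3-independent by retroviral EML4-ALK v1 I1171N/D1203N and selected with puromycin, then treated with 3-fold compound dilutions for 72 h. Viability by CellTiter-Glo luminescence; IC50 from four-parameter logistic fit.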

Ba/F3 ETV6-TRKB = Ba/F3 ETV6-TRKB (Homo sapiens, UniProt Q16620); assay: Ba/F3 cell proliferation assay, ETV6-TRKB; type: cell-based; settings: Ba/F3 stable cells, 72 hours, CellTiter-Glo; read-out: ETV6-TRKB IC50
How it was run: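 Ba/F3 cells retrovirally transduced with ETV6-TRKB and selected for IL-3-independent growth with puromycin were treated with 3-fold compound dilutions for 72 h. Viability read by CellTiter-Glo luminescence; IC50 from percent inhibition by four-parameter logistic fit.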

ALK I1171N/D1203N = ALK I1171N/D1203N (Homo sapiens (Human), UniProt Q9UM73, D1203N/I1171N); assay: Biochemical kinase assay, ALK I1171N/D1203N; settings: apparent inhibitory constant, kinase domain, Morrison equation; read-out: ALK-I1171N-D1203N Ki^app
Protocol: (§1) First, 250 nL of compound dissolved in DMSO (100-fold of the desired concentration) was dispensed into a 384-well plate. A 12.5 μL substrate solution containing ATP (2 mM) and fluorogenic phosphorylation substrate AQT0101 ([…] for ALK and ROS, AssayQuant) or AQT0104 (26 μM for TRKB, AssayQuant) in buffer (50 mM HEPES pH 7.5, […], 0.5 mM EGTA, 10 mM MgCl2) was added and mixed thoroughly. Then, a 12.5 μL kinase solution containing ALK (1.5 nM, Carna, 08-518), ALK I1171N/D1203N (4 nM, SignalChem, custom-made), ROS1 (0.6 nM, Carma, 08-163), ROS1-G2032R (0.5 nM, SignalChem, R14-121BG), or TRKB-wt (1.5 nM, SignalChem, N17-11G) kinase domains in buffer ([…] pH 7.5, 0.01% Brij-[…], 0.4 mg/mL BSA, 0.5 mM EGTA, and 10 mM MgCl2) was added and mixed thoroughly. The plate was sealed and read by SpectraMax Paradigm at λ=485 nm every 2 minutes for 120 minutes at 30° C. Initial rates of reaction (v) were calculated from the change in fluorescence intensity over time during the initial, linear portion of the reaction. Finally, apparent inhibitory constants (Ki^app) were determined from regression of v and I (inhibitor concentration) to Morrison Equation (E=enzyme concentration): […]
(§2) Compound potency can be interpreted by binning Ki^app values against the targets: bin A for high potency, Ki^app<50 nM; bin B for medium potency, 50 nM≤Ki^app<500 nM; and bin C for low potency, Ki^app≥500 nM. […] “nd” means not determined.

TRKB-wt = TRKB-wt (Homo sapiens (Human), UniProt Q16620); assay: Biochemical kinase assay, TRKB-wt; settings: apparent inhibitory constant, kinase domain, Morrison equation; read-out: TRKB-wt Ki^app
Protocol: as §1, §2

Ba/F3 EML4-ALK v1 I1171N = Ba/F3 EML4-ALK v1 I1171N (Homo sapiens (Human), UniProt Q9HC35+Q9UM73, I1171N); assay: Ba/F3 cell proliferation assay, EML4-ALK v1 I1171N; type: cell-based
How it was run: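 Ba/F3 cells stably transformed with retroviral EML4-ALK v1 I1171N, selected by IL-3 withdrawal and puromycin, grown IL-3-free. Compounds added as 3-fold dilution series, 72 h incubation; viability by CellTiter-Glo luminescence. IC50 from percent inhibition by four-parameter logistic fit, binned A/B/C.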

ALK I1171N/D1203N, sequence (Q9UM73 1116-1392 I1171N/D1203N): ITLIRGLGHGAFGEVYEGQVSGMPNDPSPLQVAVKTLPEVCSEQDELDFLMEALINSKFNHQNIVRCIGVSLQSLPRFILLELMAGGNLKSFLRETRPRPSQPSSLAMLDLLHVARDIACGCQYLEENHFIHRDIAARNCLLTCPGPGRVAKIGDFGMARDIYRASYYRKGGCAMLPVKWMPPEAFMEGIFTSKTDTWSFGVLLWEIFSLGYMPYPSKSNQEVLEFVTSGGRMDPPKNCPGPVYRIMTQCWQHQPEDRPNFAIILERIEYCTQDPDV
Ba/F3 ETV6-TRKB, sequence (Q16620 32-822 limits assumed, change not shown): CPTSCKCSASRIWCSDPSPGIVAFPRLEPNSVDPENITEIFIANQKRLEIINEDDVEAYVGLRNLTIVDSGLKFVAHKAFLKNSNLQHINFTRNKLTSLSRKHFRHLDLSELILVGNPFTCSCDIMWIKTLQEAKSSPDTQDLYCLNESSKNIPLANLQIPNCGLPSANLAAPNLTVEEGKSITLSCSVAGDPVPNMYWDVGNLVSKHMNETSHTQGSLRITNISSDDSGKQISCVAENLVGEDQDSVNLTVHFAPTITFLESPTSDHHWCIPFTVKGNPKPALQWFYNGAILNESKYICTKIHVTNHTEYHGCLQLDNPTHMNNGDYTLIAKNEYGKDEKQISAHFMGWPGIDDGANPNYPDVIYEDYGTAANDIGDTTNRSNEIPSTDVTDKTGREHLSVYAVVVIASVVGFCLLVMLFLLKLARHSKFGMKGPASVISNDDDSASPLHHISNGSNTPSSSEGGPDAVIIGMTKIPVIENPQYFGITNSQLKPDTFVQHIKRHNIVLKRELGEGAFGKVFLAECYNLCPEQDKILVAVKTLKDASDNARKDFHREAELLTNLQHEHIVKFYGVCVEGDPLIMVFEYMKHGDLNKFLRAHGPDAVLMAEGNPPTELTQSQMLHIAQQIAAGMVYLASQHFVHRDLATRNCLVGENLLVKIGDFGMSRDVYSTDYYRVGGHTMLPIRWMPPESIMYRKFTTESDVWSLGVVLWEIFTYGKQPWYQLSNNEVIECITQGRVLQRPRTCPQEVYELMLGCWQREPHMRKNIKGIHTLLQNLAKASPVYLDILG
TRKB-wt, sequence (Q16620 538-807): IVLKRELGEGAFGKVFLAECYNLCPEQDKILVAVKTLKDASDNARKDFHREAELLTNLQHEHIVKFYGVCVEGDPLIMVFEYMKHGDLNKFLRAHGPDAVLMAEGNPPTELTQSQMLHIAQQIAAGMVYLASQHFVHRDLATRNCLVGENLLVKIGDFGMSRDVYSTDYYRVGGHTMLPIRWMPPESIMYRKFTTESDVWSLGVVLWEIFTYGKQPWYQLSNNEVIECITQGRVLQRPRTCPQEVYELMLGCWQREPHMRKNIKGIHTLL
Ba/F3 EML4-ALK v1 I1171N/D1203N, sequence (Q9UM73 other isoform, or with tags, fused parts or gaps I1171N/D1203N): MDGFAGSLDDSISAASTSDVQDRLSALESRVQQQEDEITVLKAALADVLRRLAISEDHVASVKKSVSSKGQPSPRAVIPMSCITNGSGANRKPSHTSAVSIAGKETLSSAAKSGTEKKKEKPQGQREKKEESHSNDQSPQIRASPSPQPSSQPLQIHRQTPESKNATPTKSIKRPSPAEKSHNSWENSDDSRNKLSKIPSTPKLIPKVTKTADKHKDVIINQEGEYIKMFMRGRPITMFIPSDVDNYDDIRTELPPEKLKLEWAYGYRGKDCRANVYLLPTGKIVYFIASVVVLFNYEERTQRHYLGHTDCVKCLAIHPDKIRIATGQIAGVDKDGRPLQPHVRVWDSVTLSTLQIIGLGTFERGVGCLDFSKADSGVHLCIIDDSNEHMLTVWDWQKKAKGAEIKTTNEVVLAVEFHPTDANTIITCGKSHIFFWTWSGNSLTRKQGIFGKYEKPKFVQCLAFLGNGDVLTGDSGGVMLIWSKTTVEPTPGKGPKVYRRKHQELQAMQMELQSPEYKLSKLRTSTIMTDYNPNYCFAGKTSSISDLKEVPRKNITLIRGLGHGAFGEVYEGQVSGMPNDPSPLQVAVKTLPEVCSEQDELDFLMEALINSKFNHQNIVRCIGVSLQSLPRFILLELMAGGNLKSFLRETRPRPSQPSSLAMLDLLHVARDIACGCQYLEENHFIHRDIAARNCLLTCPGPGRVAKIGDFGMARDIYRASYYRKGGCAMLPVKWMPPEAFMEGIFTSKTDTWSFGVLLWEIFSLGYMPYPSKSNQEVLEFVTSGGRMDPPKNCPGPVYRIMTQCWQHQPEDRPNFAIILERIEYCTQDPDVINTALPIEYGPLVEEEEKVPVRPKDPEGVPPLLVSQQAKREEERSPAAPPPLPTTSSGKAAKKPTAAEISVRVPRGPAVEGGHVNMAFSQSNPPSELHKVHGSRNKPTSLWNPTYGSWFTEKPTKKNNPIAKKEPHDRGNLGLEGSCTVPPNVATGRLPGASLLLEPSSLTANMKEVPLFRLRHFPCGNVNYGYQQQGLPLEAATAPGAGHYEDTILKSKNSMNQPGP
Ba/F3 EML4-ALK v1 I1171N, sequence (Q9UM73 other isoform, or with tags, fused parts or gaps I1171N): as the sequence (Q9UM73 other isoform, or with tags, fused parts or gaps I1171N/D1203N) above, with N642D counted along it

SMILES	IC50 [1] [nM]	IC50 (Ba/F3 ETV6-TRKB) [nM]	Ki (ALK I1171N/D1203N) [nM]	Ki (TRKB-wt) [nM]	IC50 (Ba/F3 EML4-ALK v1 I1171N; Ba/F3 stable cells, 72 hours, CellTiter-Glo) [nM]	ETV6-TRKB / EML4-ALK v1 I1171N/D1203N [1]	Selectivity for Ba/F3 EML4-ALK v1 I1171N-D1203N IC50 over Ba/F3 ETV6-TRKB IC50 [1]	ETV6-TRKB / EML4-ALK v1 I1171N (Ba/F3 EML4-ALK v1 I1171N; TRKB selectivity, ratio of Ba/F3 IC50 values)
C[C@H]1Oc2cc(cnc2N)-c2c(c(C(=O)N3CCCC3)nn2CC2CC2)Cc2cn(C)nc2-c2ccc(F)cc21 [Example 11, {(R)-22-amino-3-(cyclopropylmethyl)-16-fluoro-10-methyl-19-methyl-20-oxa-3,4,10,11,23-pentaazapentacyclo[19.3.1.0^2,^6.0^8,^12.0^13,^18]pentacosa-1(24),2(6),4,8,11,13,15,17,21(25),22-decaen-5-yl}(1-pyrrolidinyl)methanone]	50 to 500	> 500	< 50	50 to 500		B (bin B for high selectivity, ratio≥10-fold but<30)		
C[C@H]1Oc2cc(cnc2N)-c2c(c(C(=O)N3CCC(F)(F)C3)nn2CC2CC2)Cc2cn(C)nc2-c2ccc(F)cc21 [Example 12, {(R)-22-amino-3-(cyclopropylmethyl)-16-fluoro-10-methyl-19-methyl-20-oxa-3,4,10,11,23-pentaazapentacyclo[19.3.1.0^2,^6.0^8,^12.013,18]pentacosa-1(24),2(6),4,8,11,13,15,17,21(25),22-decaen-5-yl}(3,3-difluoro-1-pyrrolidinyl)methanone]	50 to 500	> 500	< 50	≥ 500		C (bin C for moderate selectivity, ratio≥1 but<10)		
C[C@H]1Oc2cc(cnc2N)-c2c(c(C(=O)N3CC(F)(F)C3)nn2CC2CC2)Cc2cn(C)nc2-c2ccc(F)cc21 [Example 13, {(R)-22-amino-3-(cyclopropylmethyl)-16-fluoro-10-methyl-19-methyl-20-oxa-3,4,10,11,23-pentaazapentacyclo[19.3.1.0^2,^6.0^8,^12.0^13,^18]pentacosa-1(24),2(6),4,8,11,13,15, 17,21(25),22-decaen-5-yl}(3,3-difluoro-1-azetidinyl)methanone]	50 to 500	> 500	< 50	50 to 500		C (bin C for moderate selectivity, ratio≥1 but<10)		
CC(=O)c1nn(CC2CC2)c2c1Cc1cn(C)nc1-c1ccc(F)cc1[C@@H](C)Oc1cc-2cnc1N [Example 16, 1-[(19R)-22-amino-3-(cyclopropylmethyl)-16-fluoro-10,19-dimethyl-20-oxa-3.4.10,11,23-pentaazapentacyclo[19.3.1.0^2,6.0^8,12.0^13,18]pentacosa-1(24),2(6),4,8,11.13,15,17,21(25),22-decaen-5-yl]ethan-1-one]	50 to 500	> 500	50 to 500	≥ 500		C (bin C for moderate selectivity, ratio≥1 but<10)		
C[C@H]1Oc2cc(cnc2N)-c2c(c([S+](C)[O-])nn2CC2CC2)Cc2cn(C)nc2-c2ccc(F)cc21 (stereo partly drawn) [Example 17, (R)-3-(cyclopropylmethyl)-16-fluoro-10-methyl-19-methyl-5-(methylsulfinyl)-20-oxa-3,4,10,11,23-pentaazapentacyclo[19.3.1.0^2,^6.0^8,^12.0^13,^18]pentacosa-1(24),2(6),4,8,11,13,15,17,21(25),22-decaen-22-ylamine]	50 to 500	> 500	< 50	50 to 500		C (bin C for moderate selectivity, ratio≥1 but<10)		
Cc1cc2n(n1)-c1ccc(F)cc1[C@@H](C)Oc1cc(cnc1N)-c1c(C#N)nn(C)c1C2=O [Example 18, (R)-22-amino-16-fluoro-5-methyl-10,19-dimethyl-7-oxo-20-oxa-4,5,11,12,23-pentaazapentacyclo[19.3.1.0^2,^6.0^8,^12.0^13,^18]pentacosa-1(24),2(6),3,8,10,13,15,17,21(25),22-decaene-3-carbonitrile]	50 to 500	> 500	< 50	50 to 500		C (bin C for moderate selectivity, ratio≥1 but<10)	CC (bin CC for the selectivity with the ratio≥5 but<10)	
Cc1cc2n(n1)-c1ccc(F)cc1[C@@H](C)Oc1cc(cnc1N)-c1c(nn(C)c1C#N)C2=O [Example 19, (R)-22-amino-16-fluoro-4-methyl-10,19-dimethyl-7-oxo-20-oxa-4,5,11,12,23-pentaazapentacyclo[19.3.1.0^2,^6.0^8,^12.0^13,^18]pentacosa-1(24),2,5,8, 10,13,15,17,21(25),22-decaene-3-carbonitrile]	0.1 to 50	50 to 500	< 50	< 50		B (bin B for high selectivity, ratio≥10-fold but<30)		
CCn1nc(C(=O)N(C)C)c2c1-c1cnc(N)c(c1)O[C@H](C)c1cc(F)ccc1-c1ncccc1C2=O [Example 47, N,N-dimethyl-(R)-23-amino-3-ethyl-17-fluoro-20-methyl-7-oxo-21-oxa-3,4,12,24-tetraazapentacyclo[20.3.1.0^2,^6.0^8,^13.0^14,^19]hexacosa-1(25),2(6),4,8(13),9,11,14,16,18,22(26),23-undecaene-5-carboxamide]	50 to 500	> 500	50 to 500				BB (bin BB for the selectivity with the ratio≥10-fold but<30)	

Second part, led by results:

IC50 [1] [nM]	IC50 (Ba/F3 ETV6-TRKB) [nM]	Ki (ALK I1171N/D1203N) [nM]	Ki (TRKB-wt) [nM]	IC50 (Ba/F3 EML4-ALK v1 I1171N; Ba/F3 stable cells, 72 hours, CellTiter-Glo) [nM]	SMILES	ETV6-TRKB / EML4-ALK v1 I1171N/D1203N [1]	Selectivity for Ba/F3 EML4-ALK v1 I1171N-D1203N IC50 over Ba/F3 ETV6-TRKB IC50 [1]	ETV6-TRKB / EML4-ALK v1 I1171N (Ba/F3 EML4-ALK v1 I1171N; TRKB selectivity, ratio of Ba/F3 IC50 values)
50 to 500	> 500	50 to 500	≥ 500		C[C@H]1Oc2cc(cnc2N)-c2c(c(S(C)(=O)=O)nn2CC2CC2)Cc2cn(C)nc2-c2ccc(F)cc21 [Example 2, (R)-3-(cyclopropylmethyl)-16-fluoro-5-mesyl-10-methyl-19-methyl-20-oxa-3,4,10,11,23-pentaazapentacyclo[19.3.1.0^2,6.0^8,12.0^13,18]pentacosa-1(24),2(6),4,8,11,13,15,17,21(25),22-decaen-22-ylamine]	C (bin C for moderate selectivity, ratio≥1 but<10)		
50 to 500	> 500	< 50	50 to 500		C[C@H]1Oc2cc(cnc2N)-c2c(c(C(N)=O)nn2C2CCC2)Cc2cn(C)nc2-c2ccc(F)cc21 [Example 30, (R)-22-amino-3-cyclobutyl-16-fluoro-10-methyl-19-methyl-20-oxa-3,4,10,11,23-pentaazapentacyclo[19.3.1.0^2,^6.0^8,^12.0^13,^18] pentacosa-1(24),2(6),4,8,11,13,15,17,21(25),22-decaene-5-carboxamide]	B (bin B for high selectivity, ratio≥10-fold but<30)		
50 to 500	> 500	< 50		> 500	CCn1ncc2c1-c1cnc(N)c(c1)O[C@H](C)c1cc(F)ccc1-c1ncccc1C2=O [Example 76, (R)-23-amino-3-ethyl-17-fluoro-20-methyl-21-oxa-3,4,12,24-tetraazapentacyclo[20.3.1.0^2,^6.0^8,^13.0^14,^19]hexacosa-1(25),2(6),4,8(13),9,11,14,16,18,22(26),23-undecaen-7-one]	C (bin C for moderate selectivity, ratio≥1 but<10)	DD (bin DD for the selectivity with the ratio≥1 but<5)	C (bin C for moderate selectivity, ratio≥1 but<10)

— US20250326769A1, “HETEROAROMATIC MACROCYCLIC ETHER CHEMOTHERAPEUTIC AGENTS” (Nuvalent, Inc., priority 2022, published 2025)
